In publication PMC11275175, “Cannabielsoin (CBE), a CBD Oxidation Product, Is a Biased CB1 Agonist” (Biomedicines, 2024):

Key:
Type in all cases: cell-based
CB1 receptor [1] = target: T1, CB1 receptor (Mus musculus, UniProt P47746); assay: PathHunter β-arrestin CHO-K1 agonist assay (EC80)
T1 construct: gene Cnr1

[2] = target: T2, cannabinoid receptor type 1 (CB1) (Homo sapiens, UniProt P21554); assay: cAMP Hunter CHO-K1 CNR1 Gi antagonist assay vs […] CP55940
T2 construct: gene CNR1

CB1 receptor [3] = target: T1, CB1 receptor; assay: PathHunter β-arrestin CHO-K1 antagonist assay vs CP55940
[4] = target: T2, cannabinoid receptor type 1 (CB1); assay: cAMP Hunter CHO-K1 CNR1 Gi agonist assay (inhibition of forskolin-stimulated cAMP)

T1 sequence (P47746 whole entry): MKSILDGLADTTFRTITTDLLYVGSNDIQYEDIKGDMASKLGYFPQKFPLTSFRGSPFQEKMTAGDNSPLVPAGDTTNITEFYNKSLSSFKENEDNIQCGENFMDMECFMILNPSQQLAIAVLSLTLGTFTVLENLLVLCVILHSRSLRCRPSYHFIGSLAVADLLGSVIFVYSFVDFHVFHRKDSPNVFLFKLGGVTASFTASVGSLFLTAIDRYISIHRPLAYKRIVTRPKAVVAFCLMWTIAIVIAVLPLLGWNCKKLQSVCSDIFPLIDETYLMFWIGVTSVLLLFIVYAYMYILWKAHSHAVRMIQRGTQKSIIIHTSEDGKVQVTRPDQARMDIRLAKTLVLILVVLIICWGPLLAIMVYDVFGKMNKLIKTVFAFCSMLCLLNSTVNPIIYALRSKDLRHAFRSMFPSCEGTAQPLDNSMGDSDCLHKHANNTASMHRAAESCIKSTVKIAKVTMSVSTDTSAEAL
T2 sequence (P21554 whole entry): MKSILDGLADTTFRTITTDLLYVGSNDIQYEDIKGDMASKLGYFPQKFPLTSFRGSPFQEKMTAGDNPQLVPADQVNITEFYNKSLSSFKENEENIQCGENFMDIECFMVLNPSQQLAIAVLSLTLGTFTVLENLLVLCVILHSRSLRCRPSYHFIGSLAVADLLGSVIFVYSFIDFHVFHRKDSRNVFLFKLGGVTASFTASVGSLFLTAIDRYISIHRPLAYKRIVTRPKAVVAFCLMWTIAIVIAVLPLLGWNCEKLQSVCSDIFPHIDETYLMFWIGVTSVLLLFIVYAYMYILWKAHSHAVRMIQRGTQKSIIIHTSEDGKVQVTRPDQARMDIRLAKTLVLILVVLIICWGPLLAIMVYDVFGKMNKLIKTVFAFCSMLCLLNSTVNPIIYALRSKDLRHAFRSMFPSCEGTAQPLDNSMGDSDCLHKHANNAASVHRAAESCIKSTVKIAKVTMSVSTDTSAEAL

Molecule CCCCCCC(C)(C)c1ccc([C@@H]2C[C@H](O)CC[C@H]2CCCO)c(O)c1 (racemic) [CP55940] has an EC80 (CB1 receptor [1]) of 11.5 nM.

With Cc1c(C(=O)NN2CCCCC2)nn(-c2ccc(Cl)cc2Cl)c1-c1ccc(I)cc1 [AM251] the “cAMP Hunter CHO-K1 CNR1 Gi antagonist assay vs 1.2 nM CP55940” value [2] was “the antagonist/inverse agonist of CB1, AM251, completely diminished the agonist signal of CP55940”.

Cc1c(C(=O)NN2CCOCC2)nn(-c2ccc(Cl)cc2Cl)c1-c1ccc(I)cc1 [AM281] was tested, and the IC50 (CB1 receptor [3]) was 40 nM.

C=C(C)[C@@H]1CC[C@](C)(O)[C@H]2Oc3cc(CCCCC)cc(O)c3[C@@H]12 [S-CBE] showed an EC50 [4] of 3720 nM.
